In ChEMBL document CHEMBL1629666, “Quinolone resistance in Neisseria gonorrhoeae: rapid genotyping of quinolone resistance-determining regions in gyrA and parC genes by melting curve analysis predicts susceptibility” (2009):
Converted amounts (≈) assume the structure as drawn.

Columns and labels:
Neisseria gonorrhoeae [1] = test: microbe, parasite or virus in culture; details: isolate 108 175 340
Description: Antimicrobial activity against Neisseria gonorrhoeae isolate 108 175 340 harboring gyrA S91F, D95G and parC E91G mutant gene by Etest

Neisseria gonorrhoeae [2] = test: Antimicrobial activity against Neisseria gonorrhoeae isolate IPC-NG8 by Etest
Neisseria gonorrhoeae [3] = test: Antimicrobial activity against Neisseria gonorrhoeae isolate IPC-NG3 harboring gyrA S91F and D95A mutant gene by Etest
Neisseria gonorrhoeae [4] = test: Antimicrobial activity against Neisseria gonorrhoeae 96G0142 harboring gyrA S91Y and parC E91Q mutant gene by Etest
Neisseria gonorrhoeae [5] = test: Antimicrobial activity against Neisseria gonorrhoeae 97G0109 harboring gyrA S91F, D95G and parC D86N mutant gene by Etest
Neisseria gonorrhoeae [6] = test: Antimicrobial activity against Neisseria gonorrhoeae 98G0867 harboring gyrA S91F, D95G and parC S87R mutant gene by Etest
Neisseria gonorrhoeae [7] = test: Antimicrobial activity against Neisseria gonorrhoeae 95G0142 harboring gyrA S91F, D95N and parC S87R mutant gene by Etest
Neisseria gonorrhoeae [8] = test: Antimicrobial activity against Neisseria gonorrhoeae 97G0398 harboring gyrA S91F, D95G and parC S88P mutant gene by Etest
Neisseria gonorrhoeae [9] = test: Antimicrobial activity against Neisseria gonorrhoeae WHO. C by Etest
Neisseria gonorrhoeae [10] = test: Antimicrobial activity against Neisseria gonorrhoeae isolate IPC-NG18 harboring gyrA S91F, D95A and parC S87N mutant gene by Etest
Neisseria gonorrhoeae [11] = test: Antimicrobial activity against Neisseria gonorrhoeae isolate IPC-NG14 harboring gyrA S91F and D95A mutant gene by Etest
Neisseria gonorrhoeae [12] = test: Antimicrobial activity against Neisseria gonorrhoeae 92G0551 harboring gyrA S91Y mutant gene by Etest
Neisseria gonorrhoeae [13] = test: Antimicrobial activity against Neisseria gonorrhoeae 91G0622 harboring gyrA D95N mutant gene by Etest
Neisseria gonorrhoeae [14] = test: Antimicrobial activity against Neisseria gonorrhoeae isolate IPC-NG2 harboring gyrA S91F, D95Y and parC E91G mutant gene by Etest
Neisseria gonorrhoeae [15] = test: Antimicrobial activity against Neisseria gonorrhoeae isolate IPC-NG19 harboring gyrA S91F, D95A and parC S87N mutant gene by Etest
Neisseria gonorrhoeae [16] = test: Antimicrobial activity against Neisseria gonorrhoeae 07 QA 06 harboring gyrA S91F mutant gene by Etest
Neisseria gonorrhoeae [17] = test: Antimicrobial activity against Neisseria gonorrhoeae 98G0798 harboring gyrA S91F mutant gene by Etest
Neisseria gonorrhoeae [18] = test: Antimicrobial activity against Neisseria gonorrhoeae 98G0959 harboring gyrA D95N mutant gene by Etest
Neisseria gonorrhoeae [19] = test: Antimicrobial activity against Neisseria gonorrhoeae isolate IPC-NG10 harboring gyrA S91F, D95G and parC S87R mutant gene by Etest
Neisseria gonorrhoeae [20] = test: Antimicrobial activity against Neisseria gonorrhoeae isolate IPC-NG7 harboring gyrA S91F, D95G and parC S87N and E91Q mutant gene by Etest
Neisseria gonorrhoeae [21] = test: Antimicrobial activity against Neisseria gonorrhoeae WHO. M harboring gyrA S91F and D95G mutant gene by Etest
Neisseria gonorrhoeae [22] = test: Antimicrobial activity against Neisseria gonorrhoeae 91G0316 harboring gyrA S91F mutant gene by Etest
Neisseria gonorrhoeae [23] = test: Antimicrobial activity against Neisseria gonorrhoeae 07 QA 02 by Etest
Neisseria gonorrhoeae [24] = test: Antimicrobial activity against Neisseria gonorrhoeae 93G0065 harboring gyrA D95N mutant gene by Etest
Neisseria gonorrhoeae [25] = test: Antimicrobial activity against Neisseria gonorrhoeae 97G0319 harboring gyrA D95G mutant gene by Etest
Neisseria gonorrhoeae [26] = test: Antimicrobial activity against Neisseria gonorrhoeae isolate IPC-NG9 harboring gyrA S91F, D95A and parC S87N and E91Q mutant gene by Etest
Neisseria gonorrhoeae [27] = test: Antimicrobial activity against Neisseria gonorrhoeae 98G0872 harboring gyrA S91F, D95N and parC E91K mutant gene by Etest
Neisseria gonorrhoeae [28] = test: Antimicrobial activity against Neisseria gonorrhoeae WHO. G harboring gyrA S91F mutant gene by Etest
Neisseria gonorrhoeae [29] = test: Antimicrobial activity against Neisseria gonorrhoeae WHO. L harboring gyrA S91F, D95N and parC D86N and S88P mutant gene by Etest
Neisseria gonorrhoeae [30] = test: Antimicrobial activity against Neisseria gonorrhoeae isolate IPC-NG6 harboring gyrA S91F, D95Y and parC E91G mutant gene by Etest
Neisseria gonorrhoeae [31] = test: Antimicrobial activity against Neisseria gonorrhoeae isolate IPC-NG13 harboring gyrA S91F, D95A and parC S87N and E91Q mutant gene by Etest
Neisseria gonorrhoeae [32] = test: Antimicrobial activity against Neisseria gonorrhoeae isolate IPC-NG16 harboring gyrA S91F, D95A and parC S87R mutant gene by Etest
Neisseria gonorrhoeae [33] = test: Antimicrobial activity against Neisseria gonorrhoeae isolate IPC-NG5 harboring gyrA S91F, D95A and parC E91G mutant gene by Etest
Neisseria gonorrhoeae [34] = test: Antimicrobial activity against Neisseria gonorrhoeae WHO. O by Etest
Neisseria gonorrhoeae [35] = test: Antimicrobial activity against Neisseria gonorrhoeae WHO. P by Etest
Neisseria gonorrhoeae [36] = test: Antimicrobial activity against Neisseria gonorrhoeae isolate IPC-NG1 harboring gyrA S91F, D95Y and parC E91G mutant gene by Etest

O=C(O)c1cn(C2CC2)c2cc(N3CCNCC3)c(F)cc2c1=O [CIPROFLOXACIN]
MIC (Neisseria gonorrhoeae [1]): 4 µg/mL (≈ 12.1 µM) | MIC (Neisseria gonorrhoeae [2]): 0.016 µg/mL (≈ 0.0483 µM) | MIC (Neisseria gonorrhoeae [3]): 3 µg/mL (≈ 9.05 µM) | MIC (Neisseria gonorrhoeae [4]): 1 µg/mL (≈ 3.02 µM) | MIC (Neisseria gonorrhoeae [5]): 2 µg/mL (≈ 6.04 µM) | MIC (Neisseria gonorrhoeae [6]): 8 µg/mL (≈ 24.1 µM) | MIC (Neisseria gonorrhoeae [7]): 32 µg/mL (≈ 96.6 µM) | MIC (Neisseria gonorrhoeae [8]): 2 µg/mL (≈ 6.04 µM) | MIC (Neisseria gonorrhoeae [9]): 0.016 µg/mL (≈ 0.0483 µM) | MIC (Neisseria gonorrhoeae [10]): > 32 µg/mL | MIC (Neisseria gonorrhoeae [11]): 3 µg/mL (≈ 9.05 µM) | MIC (Neisseria gonorrhoeae [12]): 0.5 µg/mL (≈ 1.51 µM) | MIC (Neisseria gonorrhoeae [13]): 0.125 µg/mL (≈ 0.377 µM) | MIC (Neisseria gonorrhoeae [14]): > 32 µg/mL | MIC (Neisseria gonorrhoeae [15]): > 32 µg/mL | MIC (Neisseria gonorrhoeae [16]): 0.38 µg/mL (≈ 1.15 µM) | MIC (Neisseria gonorrhoeae [17]): 1 µg/mL (≈ 3.02 µM) | MIC (Neisseria gonorrhoeae [18]): 0.25 µg/mL (≈ 0.754 µM) | MIC (Neisseria gonorrhoeae [19]): > 32 µg/mL | MIC (Neisseria gonorrhoeae [20]): > 32 µg/mL | MIC (Neisseria gonorrhoeae [21]): 2 µg/mL (≈ 6.04 µM) | MIC (Neisseria gonorrhoeae [22]): 0.5 µg/mL (≈ 1.51 µM) | MIC (Neisseria gonorrhoeae [23]): 0.023 µg/mL (≈ 0.0694 µM) | MIC (Neisseria gonorrhoeae [24]): 0.125 µg/mL (≈ 0.377 µM) | MIC (Neisseria gonorrhoeae [25]): 0.125 µg/mL (≈ 0.377 µM) | MIC (Neisseria gonorrhoeae [26]): 16 µg/mL (≈ 48.3 µM) | MIC (Neisseria gonorrhoeae [27]): 8 µg/mL (≈ 24.1 µM) | MIC (Neisseria gonorrhoeae [28]): 0.25 µg/mL (≈ 0.754 µM) | MIC (Neisseria gonorrhoeae [29]): 16 µg/mL (≈ 48.3 µM) | MIC (Neisseria gonorrhoeae [30]): > 32 µg/mL | MIC (Neisseria gonorrhoeae [31]): 12 µg/mL (≈ 36.2 µM) | MIC (Neisseria gonorrhoeae [32]): 1.5 µg/mL (≈ 4.53 µM) | MIC (Neisseria gonorrhoeae [33]): > 32 µg/mL | MIC (Neisseria gonorrhoeae [34]): 0.016 µg/mL (≈ 0.0483 µM) | MIC (Neisseria gonorrhoeae [35]): 0.016 µg/mL (≈ 0.0483 µM) | MIC (Neisseria gonorrhoeae [36]): > 32 µg/mL
